Starred links: 1 amine or outer side, 2 acyl side, 3 side chain; linkers in the order of their positions; H or OH if unused. Non-standard residues stand in square brackets, D forms with d. Residues, ends and D or L forms follow the SMILES beside them. *: point of attachment. Acetyl(2-STrt) = O=C(CSC(c1ccccc1)(c1ccccc1)c1ccccc1)*; X1 = Oc1ccc(NC(=S)[*:2])cc1N[*:1]; Nle = CCCC[C@H](N)C(=O)O; Ahx = NCCCCCC(=O)O; βAla = NCCC(=O)O
target: T1, Gastrin/cholecystokinin type B receptor (Homo sapiens) (UniProt P32239); test: Agonist activity at human CCK2 receptor expressed in COS7 cells assessed as stimulation of [3H]inositol phosphate formation; format: functional, cell-based; settings: COS-7
T1 sequence (whole entry): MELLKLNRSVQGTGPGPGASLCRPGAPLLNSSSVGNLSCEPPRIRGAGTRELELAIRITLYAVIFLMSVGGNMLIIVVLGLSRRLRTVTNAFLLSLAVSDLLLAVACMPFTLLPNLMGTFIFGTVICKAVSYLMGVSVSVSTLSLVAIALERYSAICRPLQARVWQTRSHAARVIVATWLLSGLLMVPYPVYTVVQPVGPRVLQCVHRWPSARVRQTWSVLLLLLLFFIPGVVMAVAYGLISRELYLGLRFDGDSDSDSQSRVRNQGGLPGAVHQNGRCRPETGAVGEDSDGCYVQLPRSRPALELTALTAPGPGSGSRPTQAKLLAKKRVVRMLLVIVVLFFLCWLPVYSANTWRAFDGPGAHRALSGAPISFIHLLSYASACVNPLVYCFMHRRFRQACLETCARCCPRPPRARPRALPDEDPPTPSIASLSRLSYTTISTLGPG

First: CCCC[C@H](NC(=O)[C@H](Cc1c[nH]c2ccccc12)NC(=S)Nc1ccc(O)c(NC(=O)CNC(=O)CSC(c2ccccc2)(c2ccccc2)c2ccccc2)c1)C(=O)N[C@@H](CC(=O)O)C(=O)N[C@@H](Cc1ccccc1)C(=O)O ({Acetyl(2-STrt)}-G[X1]W[Nle]DF-OH)
Second: CCCC[C@H](NC(=O)[C@H](Cc1c[nH]c2ccccc12)NC(=O)CCNC(=O)CCNC(=S)Nc1ccc(O)c(NC(=O)CNC(=O)CSC(c2ccccc2)(c2ccccc2)c2ccccc2)c1)C(=O)N[C@@H](CC(=O)O)C(=O)N[C@@H](Cc1ccccc1)C(N)=O ({Acetyl(2-STrt)}-G[X1][βAla][βAla]W[Nle]DF-NH2)
The ED50 of the first is 27-fold higher: 84.5 nM for the first, 3.1 nM for the second.

`CCCC[C@H](NC(=O)[C@H](Cc1c[nH]c2ccccc12)NC(=O)CCCCCNC(=O)CCCCCNC(=S)Nc1ccc(O)c(NC(=O)CNC(=O)CSC(c2ccccc2)(c2ccccc2)c2ccccc2)c1)C(=O)N[C@@H](CC(=O)O)C(=O)N[C@@H](Cc1ccccc1)C(N)=O` ({Acetyl(2-STrt)}-G[X1][Ahx][Ahx]W[Nle]DF-NH2) gave an ED50 of 5.01 nM.
